According to PMC9174720, “Evaluation of antioxidant and cytotoxic properties of phenolic N-acylhydrazones: structure–activity relationship” (Royal Society Open Science, 2022):
Read-outs that look alike come from different tables or passages of the source. Blank lines part the entries; values can stand above or below the compound they belong to.

Key:
[1] = DPPH radical scavenging assay; format: biochemical; settings: for IC50: DPPH 0.05 mM in methanol, incubated 20 and 60 min, absorbance at 517 nm, mean ± s.d. of three measurements, read-out: IC50 for inactivation of DPPH free radical; for stoichiometric factor (SF): SF=[DPPH]/(2×IC50), good antioxidant if SF ≥ 2
Description: The antioxidant screening of all PheNAHs was performed using the 2,2-diphenyl-1-picrylhydrazyl (DPPH) method. The solution of DPPH radical in methanol (0.05 mM, 1 ml) was mixed with the tested compound (20 µl of different concentrations in dimethyl sulfoxide (DMSO) and 980 µl of methanol). The reaction mixture was incubated in the dark at room temperature for 20 and 60 min after which the absorbance of the sample was measured spectrophotometrically at 517 nm. All measurements were performed in triplicate. Methanol was used as a control solution, whereas quercetin and nordihydroguaiaretic acid (NDGA) were used as reference compounds. […] IC50 is defined as the minimal concentration of tested compound required for reaching 50% of a maximum scavenging capacity. The results were presented as mean values ± standard deviation (s.d.) of three independent measurements. The stoichiometric factor (SF) was calculated for all compounds using the equation [45, 46]:1 SF=[DPPH]/(2×IC50)

MRC-5 = assay: MTT cytotoxicity assay on MRC-5 cells; format: cell-based; settings: Homo sapiens, MRC5, MRC-5 cell line, read-out: Growth inhibitory effects IC50
Description: (§1) In this in vitro study, we investigated the influence of PheNAHs on two model systems: human colorectal carcinoma HCT-116 and human healthy fibroblast cell line MRC-5. Both cell lines of low passages were purchased from the European collection of authenticated cell cultures (ECACC) and were cultivated in Dulbecco's Modified Eagle Medium (DMEM) (Sigma, D5796) cell culture medium supplemented with 10% foetal bovine serum (Sigma, F4135-500 ML) and 1% penicillin/streptomycin (Sigma, P4333-100 ML) in 75 cm^2 culture flasks. The cells were maintained according to the standardized procedure in the incubator with humidified atmosphere supplemented with 5% CO2 at a physiological temperature of 37°C, and after a few passages and a confluence of about 80%, the cells were used in all in vitro experiments (Laboratory for Bioengineering protocol CB-003).
(§2) The ability of synthesized compounds to inhibit the growth of two different cell lines was estimated by a standardized 3-(4,5-dimethylthiazol-2-yl)-2,5-diphenyltetrazolium bromide (MTT) assay (Laboratory for Bioengineering protocol CB-005). The approximative number of 10 000 cells per well (in 96-well microplates) were seeded and kept in the incubator for 24 h to enable cell adhesion. After the incubation period, the cells were treated with investigated compounds in the concentration range from 0,1 to 500 µM dissolved in DMEM. Cytotoxic effect was evaluated 24 and 72 h from treatment by following the number of survived cells, thus the cell viability. MTT assay is based on spectrophotometric measurement of reduction rate of 3-(4,5-dimethylthiazol-2-yl)-2,5-diphenyltetrazolium bromide (MTT, Acros Organics, 158990010) to purple formazan crystals subsequently dissolved in DMSO (Fisher Chemical, D/4121/PB15) on a microplate reader (Rayto 2100C) at 550 nm. The percentage of the survived (viable) cells was estimated by dividing the absorbance of the treatment with the absorbance of the control (non-treated) cells and multiplied by 100 [47]. As positive controls, Leucovorin and Irinotecan were selected as compounds used in colon cancer treatment.
(§3) Biological activity was the result of two individual experiments, performed in triplicate for each dose. Statistical analyses were determined using the one-way analysis of variance (ANOVA) test for multiple comparisons, SPSS (Chicago, IL) statistical software package (SPSS for Windows, v. 17, 2008). The IC50 values were calculated from the dose curves by a computer program (CalcuSyn). IC50 values represent the half-maximal inhibitory concentration of tested compounds to measure the influence in inhibition of cell growth for 50%. […] At the beginning of the process of selecting the anti-cancer drug candidate, it is necessary to make a rough preselection between the tested substances. In vitro analysis on cancer and healthy cell lines is quantified in different ways, selectivity also. The selectivity index (SI) of tested drugs usually refers to the simple ratio of IC50 values determined for cancer and healthy cells. Also, the SI can be used for the expression of many other examples, such as SI between antibacterial and antiviral effect, discrimination of the drugs effect between many cancer cell lines, etc. In our experimentation, the values greater than ‘1’ indicate selectivity of the tested substance toward cancer cell line.

HCT-116 = assay: MTT cytotoxicity assay on HCT-116 cells; format: cell-based, human; settings: for IC50: Homo sapiens, HCT-116 cell line, read-out: Growth inhibitory effects IC50; for selectivity index (SI): ratio of IC50 values of MRC-5 and HCT-116, values greater than 1 indicate selectivity toward cancer cell line
Description: as §1, §2, §3

Compound: O=C(N/N=C/c1ccccc1)c1ccccc1 [1a]
- IC50 [1]: > 100 µM
- IC50 (MRC-5; 24 h exposure): > 500 µM
- IC50 (MRC-5; 72 h exposure): > 500 µM
- IC50 (HCT-116; 24 h exposure): > 500 µM
- IC50 (HCT-116; 72 h exposure): > 500 µM

Compound: O=C(N/N=C/c1ccccc1O)c1ccccc1 [1b]
- IC50 [1]: > 100 µM
- IC50 (MRC-5; 24 h exposure): > 500 µM
- IC50 (MRC-5; 72 h exposure): > 500 µM
- IC50 (HCT-116; 24 h exposure): 249 µM
- IC50 (HCT-116; 72 h exposure): 139 µM
- selectivity index (SI) (HCT-116; after 24 h exposure): >2.01
- selectivity index (SI) (HCT-116; after 72 h exposure): >3.59

Compound: O=C(N/N=C/c1ccc(O)cc1)c1ccccc1 [1c]
- IC50 [1]: > 100 µM
- IC50 (MRC-5; 24 h exposure): > 500 µM
- IC50 (MRC-5; 72 h exposure): > 500 µM
- IC50 (HCT-116; 24 h exposure): > 500 µM
- IC50 (HCT-116; 72 h exposure): > 500 µM

Compound: COc1cccc(/C=N/NC(=O)c2ccccc2)c1O [1d]
- IC50 [1]: > 100 µM
- IC50 (MRC-5; 24 h exposure): > 500 µM
- IC50 (MRC-5; 72 h exposure): 306 µM
- IC50 (HCT-116; 24 h exposure): > 500 µM
- IC50 (HCT-116; 72 h exposure): 66.6 µM
- selectivity index (SI) (HCT-116; after 72 h exposure): 4.6

Compound: COc1cc(/C=N/NC(=O)c2ccccc2)ccc1O [1e]
- IC50 [1]: 31.4 ± 0.9 µM
- stoichiometric factor (SF) [1]: 0.4
- IC50 (MRC-5; 24 h exposure): > 500 µM
- IC50 (MRC-5; 72 h exposure): > 500 µM
- IC50 (HCT-116; 24 h exposure): > 500 µM
- IC50 (HCT-116; 72 h exposure): > 500 µM

Compound: COc1cc(/C=N/NC(=O)c2ccccc2)cc(OC)c1O [1f]
- IC50 [1]: 17.2 ± 1.1 µM
- stoichiometric factor (SF) [1]: 0.7
- IC50 (MRC-5; 24 h exposure): > 500 µM
- IC50 (MRC-5; 72 h exposure): > 500 µM
- IC50 (HCT-116; 24 h exposure): > 500 µM
- IC50 (HCT-116; 72 h exposure): > 500 µM

Compound: O=C(N/N=C/c1ccc(O)cc1O)c1ccccc1 [1g]
- IC50 [1]: > 100 µM
- IC50 (MRC-5; 24 h exposure): > 500 µM
- IC50 (MRC-5; 72 h exposure): > 500 µM
- IC50 (HCT-116; 24 h exposure): > 500 µM
- IC50 (HCT-116; 72 h exposure): 316 µM

Compound: O=C(N/N=C/c1ccc(O)c(O)c1)c1ccccc1 [1h]
- IC50 [1]: 2.93 ± 0.1 µM
- stoichiometric factor (SF) [1]: 4.3
- IC50 (MRC-5; 24 h exposure): > 500 µM
- IC50 (MRC-5; 72 h exposure): > 500 µM
- IC50 (HCT-116; 24 h exposure): > 500 µM
- IC50 (HCT-116; 72 h exposure): > 500 µM

Compound: O=C(N/N=C/c1ccccc1)c1ccccc1O [2a]
- IC50 [1]: > 100 µM
- IC50 (MRC-5; 24 h exposure): > 500 µM
- IC50 (MRC-5; 72 h exposure): > 500 µM
- IC50 (HCT-116; 24 h exposure): > 500 µM
- IC50 (HCT-116; 72 h exposure): > 500 µM

Compound: O=C(N/N=C/c1ccccc1O)c1ccccc1O [2b]
- IC50 [1]: > 100 µM
- IC50 (MRC-5; 24 h exposure): > 500 µM
- IC50 (MRC-5; 72 h exposure): 233 µM
- IC50 (HCT-116; 24 h exposure): 26.9 µM
- IC50 (HCT-116; 72 h exposure): 70.5 µM
- selectivity index (SI) (HCT-116; after 24 h exposure): >18.59
- selectivity index (SI) (HCT-116; after 72 h exposure): 3.30

Compound: O=C(N/N=C/c1ccc(O)cc1)c1ccccc1O [2c]
- IC50 [1]: > 100 µM
- IC50 (MRC-5; 24 h exposure): > 500 µM
- IC50 (MRC-5; 72 h exposure): > 500 µM
- IC50 (HCT-116; 24 h exposure): > 500 µM
- IC50 (HCT-116; 72 h exposure): > 500 µM

Second part, led by results:

- IC50 [1]: > 100 µM
Compound: COc1cccc(/C=N/NC(=O)c2ccccc2O)c1O [2d]
- IC50 (MRC-5; 24 h exposure): 37.9 µM
- IC50 (MRC-5; 72 h exposure): 87.3 µM
- IC50 (HCT-116; 24 h exposure): 80.5 µM
- IC50 (HCT-116; 72 h exposure): 26.2 µM
- selectivity index (SI) (HCT-116; after 72 h exposure): 3.3

- IC50 [1]: 20.1 ± 0.9 µM
Compound: COc1cc(/C=N/NC(=O)c2ccccc2O)ccc1O [2e]
- stoichiometric factor (SF) [1]: 0.6
- IC50 (MRC-5; 24 h exposure): > 500 µM
- IC50 (MRC-5; 72 h exposure): > 500 µM
- IC50 (HCT-116; 24 h exposure): > 500 µM
- IC50 (HCT-116; 72 h exposure): > 500 µM

- IC50 [1]: 6.5 ± 0.4 µM
Compound: COc1cc(/C=N/NC(=O)c2ccccc2O)cc(OC)c1O [2f]
- stoichiometric factor (SF) [1]: 1.9
- IC50 (MRC-5; 24 h exposure): > 500 µM
- IC50 (MRC-5; 72 h exposure): > 500 µM
- IC50 (HCT-116; 24 h exposure): > 500 µM
- IC50 (HCT-116; 72 h exposure): > 500 µM

- IC50 [1]: > 100 µM
Compound: O=C(N/N=C/c1ccc(O)cc1O)c1ccccc1O [2g]
- IC50 (MRC-5; 24 h exposure): > 500 µM
- IC50 (MRC-5; 72 h exposure): > 500 µM
- IC50 (HCT-116; 24 h exposure): > 500 µM
- IC50 (HCT-116; 72 h exposure): 61.2 µM

- IC50 [1]: 1.6 µM
Compound: O=C(N/N=C/c1ccc(O)c(O)c1)c1ccccc1O [2h]
- stoichiometric factor (SF) [1]: 7.8
- IC50 (MRC-5; 24 h exposure): > 500 µM
- IC50 (MRC-5; 72 h exposure): > 500 µM
- IC50 (HCT-116; 24 h exposure): > 500 µM
- IC50 (HCT-116; 72 h exposure): 208 µM
